Assay results taken from ChEMBL document CHEMBL5550210, “Discovery of Novel α,β-Unsaturated Amide Derivatives as Candidate Antifungals to Overcome Fungal Resistance” (J Med Chem, 2024).
Converted amounts (≈) assume the structure as drawn. The source made the active and inactive calls. No cut-off for these calls is given here.

Columns and labels:
[1] = Half life in mouse plasma measured at 180 mins; type: ADME, cell-free
[2] = tested on: Candida albicans; assay: Antifungal activity against fluconazole-resistant Candida albicans 904 assessed as downregulation of CDR2 gene expression at 16 ug/ml incubated for 16 hrs by RT-PCR analysis; type: functional, organism-based; settings: dose 16.0 µg/ml
[3] = tested on: Candida albicans; assay: Antifungal activity against Candida albicans SC5314 infected ICR mouse model assessed as reduction in fungal burden in kidney at ip administration for 5 days; type: functional, organism-based; settings: time 5.0 day
[4] = Subacute toxicity in Kunming mouse assessed as animal death at 100 mg/kg,po administrated once daily for 14 days; type: organism-based; settings: in vivo, 336 h, time 14 day
[5] = Volume of distribution at steady state in Sprague-Dawley rat at 2 mg/kg,iv by LC-MS/MS analysis; type: ADME, organism-based; settings: in vivo, read-out: Vdss
[6] = Acute toxicity in Kunming female mouse assessed as kidney damage at 100 mg/kg,po administrated for 7 days by hematoxylin and eosin staining based microscopic analysis; type: organism-based; settings: in vivo, 168 h, time 7 day
[7] = tested on: Candida albicans; assay: Antifungal activity against fluconazole-resistant Candida albicans 904 assessed as downregulation of EFG1 gene expression at 16 ug/ml incubated for 12 hrs by RT-PCR analysis; type: functional, organism-based; settings: dose 16.0 µg/ml
[8] = target: T1, Voltage-gated inwardly rectifying potassium channel KCNH6 (Homo sapiens, UniProt Q9H252); assay: Inhibition of hERG2; type: toxicity
T1 sequence (Q9H252 whole entry): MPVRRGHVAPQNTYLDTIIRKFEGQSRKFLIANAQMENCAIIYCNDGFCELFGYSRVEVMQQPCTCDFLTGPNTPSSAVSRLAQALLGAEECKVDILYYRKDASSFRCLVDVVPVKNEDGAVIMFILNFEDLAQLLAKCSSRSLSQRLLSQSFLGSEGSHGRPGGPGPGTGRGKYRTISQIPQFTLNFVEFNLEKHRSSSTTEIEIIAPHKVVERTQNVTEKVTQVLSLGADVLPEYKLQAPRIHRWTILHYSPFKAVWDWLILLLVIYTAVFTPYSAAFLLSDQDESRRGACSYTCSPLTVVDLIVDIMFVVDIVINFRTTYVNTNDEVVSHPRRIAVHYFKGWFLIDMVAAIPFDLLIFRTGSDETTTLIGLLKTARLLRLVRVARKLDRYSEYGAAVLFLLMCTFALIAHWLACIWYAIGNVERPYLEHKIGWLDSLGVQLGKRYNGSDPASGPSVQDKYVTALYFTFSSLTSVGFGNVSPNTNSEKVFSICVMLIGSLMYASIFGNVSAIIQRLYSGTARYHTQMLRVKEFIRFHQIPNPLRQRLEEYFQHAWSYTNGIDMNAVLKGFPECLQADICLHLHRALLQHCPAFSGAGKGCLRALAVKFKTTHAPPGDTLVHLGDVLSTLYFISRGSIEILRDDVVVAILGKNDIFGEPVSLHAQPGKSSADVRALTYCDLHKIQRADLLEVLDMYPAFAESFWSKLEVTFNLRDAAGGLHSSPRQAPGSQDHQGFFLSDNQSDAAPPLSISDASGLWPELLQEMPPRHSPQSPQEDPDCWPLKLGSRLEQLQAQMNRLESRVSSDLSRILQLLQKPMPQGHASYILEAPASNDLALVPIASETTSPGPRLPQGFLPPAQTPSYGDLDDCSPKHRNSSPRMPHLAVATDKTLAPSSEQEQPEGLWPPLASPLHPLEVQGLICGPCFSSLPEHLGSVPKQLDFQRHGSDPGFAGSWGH

[9] = Half life in Sprague-Dawley rat at 5 mg/kg,po by LC-MS/MS analysis; type: ADME, organism-based; settings: in vivo
[10] = tested on: Candida albicans; assay: Antifungal activity against Candida albicans SC5314 assessed as leakage of endogenous substances at 16 ug/ml incubated for 24 hrs by transmission electron microscopic analysis; type: functional, organism-based; settings: dose 16.0 µg/ml
[11] = tested on: Candida albicans; assay: Antifungal activity against fluconazole-resistant Candida albicans 904 infected ICR mouse model assessed as median survival time at 20 mg/kg,ip administration for 14 days; type: functional; settings: time 14 day
[12] = tested on: Candida albicans; assay: Antifungal activity against Candida albicans CPCC400616 assessed as downregulation of ALS3 gene expression at 2 ug/ml incubated for 12 hrs by RT-PCR analysis; type: functional, organism-based; settings: dose 2.0 µg/ml
[13] = tested on: Candida albicans; assay: Antifungal activity against fluconazole-resistant Candida albicans 904 assessed as downregulation of ALS3 gene expression at 16 ug/ml incubated for 12 hrs by RT-PCR analysis; type: functional, organism-based; settings: dose 16.0 µg/ml
[14] = tested on: Candida albicans; assay: Antifungal activity against Candida albicans CPCC400616 assessed as inhibition of fungal growth by CLSI protocol based microdilution method; type: functional
[15] = tested on: Candida albicans; assay: Antifungal activity against fluconazole-resistant Candida albicans 904 assessed as downregulation of TEC1 gene expression at 16 ug/ml incubated for 12 hrs by RT-PCR analysis; type: functional, organism-based; settings: dose 16.0 µg/ml
[16] = MRTinfinity in Sprague-Dawley rat at 2 mg/kg,iv by LC-MS/MS analysis; type: ADME, organism-based; settings: in vivo
[17] = tested on: Candida albicans; assay: Antifungal activity against Candida albicans SC5314 assessed as inhibition of fungal growth by CLSI protocol based microdilution method; type: functional
[18] = Acute toxicity in Kunming mouse assessed as behavioral change at 1000 mg/kg,po administrated for 7 days; type: organism-based; settings: in vivo, 168 h, time 7 day
[19] = Stability in mouse plasma assessed as parent compound remaining measured at 180 mins; type: ADME, cell-free; settings: read-out: Stability
[20] = AUC (0 to infinity) in Sprague-Dawley rat at 5 mg/kg,po by LC-MS/MS analysis; type: ADME, organism-based; settings: in vivo
[21] = MRTinfinity in Sprague-Dawley rat at 5 mg/kg,po by LC-MS/MS analysis; type: ADME, organism-based; settings: in vivo
[22] = tested on: Candida albicans; assay: Fungicidal activity against Candida albicans assessed as inhibition of fungal growth measured after 48 hrs by CLSI protocol based microdilution method; type: functional
[23] = tested on: J774.A1; assay: Cytotoxicity against mouse J774.A1 cells assessed as inhibition of cell growth incubated for 72 hrs by MTT assay; type: functional, cell-based; settings: J774.A1, 72 h
[24] = tested on: Candida albicans; assay: Antifungal activity against fluconazole-resistant Candida albicans 632 assessed as inhibition of fungal growth by CLSI based microdilution method; type: functional
[25] = target: Lanosterol 14-alpha demethylase (Candida albicans (strain SC5314 / ATCC MYA-2876) (Yeast), UniProt P10613); assay: Inhibition of CYP51 in Candida albicans SC5314 assessed as increase in obtusifoliol level at 0.031 ug/ml incubated for 24 hrs by GC-MS analysis relative to control; settings: at 0.031 µg/mL
Lanosterol 14-alpha demethylase, sequence (P10613 whole entry): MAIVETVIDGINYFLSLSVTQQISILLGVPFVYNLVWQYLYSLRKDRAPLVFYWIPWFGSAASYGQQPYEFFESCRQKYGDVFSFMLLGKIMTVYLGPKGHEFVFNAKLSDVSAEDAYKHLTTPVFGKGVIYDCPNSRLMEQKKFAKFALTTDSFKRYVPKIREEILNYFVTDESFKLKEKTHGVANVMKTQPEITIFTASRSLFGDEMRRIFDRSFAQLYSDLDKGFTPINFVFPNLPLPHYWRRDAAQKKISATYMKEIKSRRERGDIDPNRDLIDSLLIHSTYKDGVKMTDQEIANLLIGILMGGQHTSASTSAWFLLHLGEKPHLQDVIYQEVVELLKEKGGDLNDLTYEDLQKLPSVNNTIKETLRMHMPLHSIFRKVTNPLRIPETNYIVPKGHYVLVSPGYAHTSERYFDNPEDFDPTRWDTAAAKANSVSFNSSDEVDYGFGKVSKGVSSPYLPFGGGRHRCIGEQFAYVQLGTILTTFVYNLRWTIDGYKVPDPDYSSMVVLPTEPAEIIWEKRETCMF

[26] = Acute toxicity in Kunming mouse assessed as change in body weight at 1000 mg/kg,po administrated for 7 days; type: organism-based; settings: in vivo, 168 h, time 7 day
[27] = Acute toxicity in Kunming male mouse assessed as kidney damage at 100 mg/kg,po administrated for 7 days by hematoxylin and eosin staining based microscopic analysis; type: organism-based; settings: in vivo, 168 h, time 7 day
[28] = Tmax in Sprague-Dawley rat at 5 mg/kg,po by LC-MS/MS analysis; type: ADME, organism-based; settings: in vivo
[29] = tested on: Cryptococcus neoformans; assay: Antifungal activity against Cryptococcus neoformans CGMCC2.3161 assessed as inhibition of fungal growth by CLSI protocol based microdilution method; type: functional
[30] = Clearance in Sprague-Dawley rat at 2 mg/kg,iv by LC-MS/MS analysis; type: ADME, organism-based; settings: in vivo

## CCCCNC(=O)/C=C/c1ccc(COC(Cn2ccnc2)c2ccc(Cl)cc2Cl)cc1 (stereo not given)
[1]
  half-life: > 6 h
[2]
  Activity: Active
[3]
  Activity: Dose-Dependent Effect
[4]
  Activity: Non-Toxic
[5]
  Vd: 1.76 L/kg
[6]
  Activity: Non-Toxic
[7]
  Activity: Active
[8]
  inhibition (INH): Active
[9]
  half-life: 1.23 h
[10]
  Activity: Active
[11]
  MST: 13.52 days
[12]
  Activity: Active
[13]
  Activity: Active
[14]
  MIC: 0.03 µg/mL (≈ 0.0635 µM)
[15]
  Activity: Active
[16]
  MRT inf: 1.24 h
[17]
  MIC: 0.015 µg/mL (≈ 0.0318 µM)
[18]
  Activity: Non-Toxic
[19]
  remaining at 3 h: 102%
[20]
  AUC(0-inf): 452 ng·h/mL
[21]
  MRT inf: 1.93 h
[22]
  MFC: 32 µg/mL (≈ 67.7 µM)
[23]
  IC50: 29.4 µM
[24]
  MIC: 0.25 µg/mL (≈ 0.529 µM)
[25]
  inhibition (INH): Active
[26]
  Activity: Non-Toxic
[27]
  Activity: Toxic
[28]
  Tmax: 1 h
[29]
  MIC: 0.5 µg/mL (≈ 1.06 µM)
[30]
  clearance: 23.7 mL/min/kg

## O=C(/C=C/c1ccc(COC(Cn2ccnc2)c2ccc(Cl)cc2Cl)cc1)Nc1ccc(Cl)cc1Cl (stereo not given)
[1]
  half-life: > 6 h
[2]
  Activity: Active
[7]
  Activity: Active
[8]
  inhibition (INH): Active
[12]
  Activity: Active
[13]
  Activity: Active
[14]
  MIC: 0.06 µg/mL (≈ 0.107 µM)
[15]
  Activity: Active
[17]
  MIC: 0.03 µg/mL (≈ 0.0534 µM)
[19]
  remaining at 3 h: 97.8%
[22]
  MFC: 32 µg/mL (≈ 57 µM)
[23]
  IC50: 24.6 µM
[24]
  MIC: 0.25 µg/mL (≈ 0.445 µM)
[25]
  inhibition (INH): Active
[29]
  MIC: 0.5 µg/mL (≈ 0.891 µM)
